Like-named read-outs stand apart in the source and are kept apart here.
Assays:
Assay type in all cases: cell-based
[1] = test system: Septoria tritici; assay: Activity against leaf blotch on wheat caused by Septoria tritici (microtiterplate test)
[2] = test system: Pyricularia oryzae; assay: microbe, parasite or virus in culture; details: for Observed efficacy: single active compound
[3] = test system: Botrytis cinerea; assay: Activity against the grey mold Botrytis cinerea in the microtiterplate test
[4] = Zymoseptoria tritici, 168 h, single active, 4 ppm, read-out: Observed efficacy
[5] = Zymoseptoria tritici, 168 h, single active, read-out: Observed efficacy
[6] = Botrytis cinerea, 168 h, single active compound, 4 ppm, read-out: Observed efficacy
[7] = Botrytis cinerea, 168 h, single active compound, read-out: Observed efficacy
[8] = Pyricularia oryzae, 168 h, read-out: Observed efficacy
[9] = Zymoseptoria tritici, 168 h, single active, 0.004 ppm, read-out: Observed efficacy
[10] = Zymoseptoria tritici, 168 h, single active, 0.016 ppm, read-out: Observed efficacy
[11] = Botrytis cinerea, 168 h, read-out: Observed efficacy
[12] = Zymoseptoria tritici, 168 h, read-out: Observed efficacy

Question: For `Cc1cccc(-n2nnn(C)c2=O)c1COc1ccn(-c2ccc(Cl)cc2)n1` [Methyltetraprol, metyltetrapole], which Observed efficacy ([1]; single active, 0.004 ppm) is on record?
Answer: Its Observed efficacy is 5%.

Question: What about the Observed efficacy ([1]; single active, 0.016 ppm) of the same molecule?
Answer: Its Observed efficacy is 22%.

Question: And the Observed efficacy ([2]; 0.016 ppm)?
Answer: Its Observed efficacy is 24%.

Question: What does the source list for `COc1cc(C)c(C(=O)c2c(OC)ccc(Br)c2C)c(OC)c1OC` [Metrafenon, metrafenone]?
Answer: inhibition of growth at 4 ppm [1, 4]: 4%; inhibition of growth at 16 ppm [1, 5]: 16%; inhibition of growth at 4 ppm [3, 6]: 3%; inhibition of growth at 16 ppm [3, 7]: 18%; inhibition of growth at 1 ppm [2, 8]: 2%; inhibition of growth at 4 ppm [2, 8]: 7%

Question: `C=CCOC1=NS(=O)(=O)c2ccccc21` [Probenazol, probenazole] was tested. Which inhibition of growth at 4 ppm [1, 4] did it give?
Answer: Its inhibition of growth at 4 ppm is 4%.

Question: What about the inhibition of growth at 63 ppm [3, 7] of the same molecule?
Answer: The inhibition of growth at 63 ppm was 22%.

Question: And the inhibition of growth at 4 ppm [2, 8]?
Answer: Its inhibition of growth at 4 ppm is 2%.

Question: What about the inhibition of growth at 16 ppm [2, 8] of the same molecule?
Answer: The inhibition of growth at 16 ppm was 12%.

Question: Which results are given for `OC(Cc1ccccc1Cl)(Cn1nc[nH]c1=S)C1(Cl)CC1` (stereo not shown) [Prothioconazol, prothioconazole]?
Answer: inhibition of growth at 0.063 ppm [1, 5]: 1%; inhibition of growth at 0.25 ppm [2, 8]: 12%

Question: For `CON(C(=O)c1cn(C)nc1C(F)F)C(C)Cc1c(Cl)cc(Cl)cc1Cl` (stereo not shown) [Pydiflumetofen, pydiflumetofen], which Observed efficacy ([2]; 1 ppm) is on record?
Answer: The Observed efficacy was 44%.

Question: For `COC(=O)N(OC)c1ccccc1COc1ccn(-c2ccc(Cl)cc2)n1` [Pyraclostrobin, pyraclostrobin], which inhibition of growth at 0.004 ppm [1, 9] is on record?
Answer: The inhibition of growth at 0.004 ppm was 7%.

Question: What about the inhibition of growth at 0.016 ppm [1, 10] of the same molecule?
Answer: Its inhibition of growth at 0.016 ppm is 52%.

Question: What about the inhibition of growth at 0.001 ppm [2, 8] of the same molecule?
Answer: Its inhibition of growth at 0.001 ppm is 4%.

Question: And the inhibition of growth at 0.004 ppm [2, 8]?
Answer: The inhibition of growth at 0.004 ppm was 14%.

Question: For `O=C1CCc2cccc3c2N1CC3` [Pyroquilon, pyroquilon], which inhibition of growth at 1 ppm [3, 11] is on record?
Answer: The inhibition of growth at 1 ppm was 2%.

Question: And the inhibition of growth at 1 ppm [2, 8]?
Answer: The inhibition of growth at 1 ppm was 7%.

Question: How did the inhibition of growth at 1 ppm [1, 12] turn out when `S1SSSSSSS1` [Sulfur, sulfur] was run?
Answer: The inhibition of growth at 1 ppm was 18%.

Question: And the inhibition of growth at 4 ppm [2, 8]?
Answer: Its inhibition of growth at 4 ppm is 54%.

Question: How did the inhibition of growth at 0.004 ppm [1, 9] turn out when `FC(F)C(F)(F)OCC(Cn1cncn1)c1ccc(Cl)cc1Cl` (stereo not shown) [Tetraconazol, tetraconazole] was run?
Answer: Its inhibition of growth at 0.004 ppm is 6%.

Question: And the inhibition of growth at 0.063 ppm [1, 5]?
Answer: Its inhibition of growth at 0.063 ppm is 12%.

Question: What about the inhibition of growth at 0.063 ppm [3, 7] of the same molecule?
Answer: Its inhibition of growth at 0.063 ppm is 5%.

Question: And the inhibition of growth at 0.063 ppm [2, 8]?
Answer: Its inhibition of growth at 0.063 ppm is 7%.

Question: For `Cc1nc(C(F)(F)F)c(C(=O)Nc2c(Br)cc(OC(F)(F)F)cc2Br)s1` [Thifluzamid, thifluzamide], which inhibition of growth at 4 ppm [1, 12] is on record?
Answer: Its inhibition of growth at 4 ppm is 69%.

Question: What about the inhibition of growth at 4 ppm [3, 11] of the same molecule?
Answer: Its inhibition of growth at 4 ppm is 37%.

Question: What about the inhibition of growth at 1 ppm [2, 8] of the same molecule?
Answer: The inhibition of growth at 1 ppm was 2%.

Question: What about the inhibition of growth at 4 ppm [2, 8] of the same molecule?
Answer: The inhibition of growth at 4 ppm was 16%.

Question: `Cc1ccc(NC(=O)c2snnc2C)cc1Cl` [Tiadinil, tiadinil] was tested. Which inhibition of growth at 4 ppm [1, 4] did it give?
Answer: The inhibition of growth at 4 ppm was 21%.

Question: And the inhibition of growth at 16 ppm [1, 5]?
Answer: The inhibition of growth at 16 ppm was 18%.

Question: What about the inhibition of growth at 63 ppm ([1]; Zymoseptoria tritici, 168 h, single active, 63 ppm, read-out: Observed efficacy) of the same molecule?
Answer: Its inhibition of growth at 63 ppm is 30%.

Question: And the inhibition of growth at 16 ppm [3, 7]?
Answer: The inhibition of growth at 16 ppm was 6%.

Question: And the inhibition of growth at 63 ppm [3, 7]?
Answer: Its inhibition of growth at 63 ppm is 19%.

Question: And the inhibition of growth at 4 ppm [2, 8]?
Answer: The inhibition of growth at 4 ppm was 2%.

Question: And the inhibition of growth at 16 ppm [2, 8]?
Answer: The inhibition of growth at 16 ppm was 10%.

Question: What about the inhibition of growth at 63 ppm [2, 8] of the same molecule?
Answer: The inhibition of growth at 63 ppm was 21%.

Question: `Cc1cccc2sc3nncn3c12` [Tricyclazol, tricyclazole] was tested. Which inhibition of growth at 4 ppm [3, 6] did it give?
Answer: The inhibition of growth at 4 ppm was 2%.

Question: What about the inhibition of growth at 4 ppm [2, 8] of the same molecule?
Answer: The inhibition of growth at 4 ppm was 6%.

Question: `CON=C(C(=O)OC)c1ccccc1CON=C(C)c1cccc(C(F)(F)F)c1` [Trifloxystrobin, trifloxystrobin] was tested. Which inhibition of growth at 0.016 ppm [1, 10] did it give?
Answer: The inhibition of growth at 0.016 ppm was 27%.

Question: And the inhibition of growth at 0.063 ppm [3, 7]?
Answer: The inhibition of growth at 0.063 ppm was 4%.

Question: What about the inhibition of growth at 0.004 ppm [2, 8] of the same molecule?
Answer: The inhibition of growth at 0.004 ppm was 8%.

Question: What about the inhibition of growth at 0.016 ppm [2, 8] of the same molecule?
Answer: Its inhibition of growth at 0.016 ppm is 23%.

Question: `CC1(C)CCC(=Cc2ccc(Cl)cc2)C1(O)Cn1cncn1` (stereo not shown) [Triticonazol, triticonazole] was tested. Which inhibition of growth at 1 ppm [2, 8] did it give?
Answer: Its inhibition of growth at 1 ppm is 10%.

Question: For `OCC1=C[C@H](N[C@H]2C[C@H](CO)[C@@H](O[C@@H]3O[C@H](CO)[C@@H](O)[C@H](O)[C@H]3O)[C@H](O)[C@H]2O)[C@H](O)[C@@H](O)[C@@H]1O` [Validamycin, validamycin], which inhibition of growth at 63 ppm [2, 8] is on record?
Answer: Its inhibition of growth at 63 ppm is 10%.

Question: `Cc1nc2c(F)c(F)ccc2cc1Oc1cccc(F)c1C(C)(C)O` [drawing 29] was tested. Which inhibition of growth at 4 ppm [2, 8] did it give?
Answer: Its inhibition of growth at 4 ppm is 50%.

Question: Which inhibition of growth at 1 ppm [1, 12] does the source give for `Cc1nc2c(F)c(F)ccc2cc1Oc1cccc(F)c1C(C)(C)O` [drawing 43] here?
Answer: Its inhibition of growth at 1 ppm is 45%.

Question: For Mancozeb, which Observed efficacy ([1]; single active, 1 ppm) is on record?
Answer: Its Observed efficacy is 16%.

Question: How did the Observed efficacy ([1]; single active, 0.25 ppm) turn out when inpyrfluxam was run?
Answer: The Observed efficacy was 22%.

Question: What about the Observed efficacy ([3]; single active compound, 0.25 ppm) of the same molecule?
Answer: The Observed efficacy was 44%.

Question: Which Observed efficacy ([1]; single active, 1 ppm) does the source give for metiram here?
Answer: Its Observed efficacy is 2%.

Question: And the Observed efficacy ([1]; single active, 4 ppm)?
Answer: The Observed efficacy was 4%.

Question: What about the Observed efficacy ([2]; 4 ppm) of the same molecule?
Answer: Its Observed efficacy is 8%.

Question: What does the source list for prohexadione-calcium [Prohexadion-ca]?
Answer: Observed efficacy ([1]; single active, 63 ppm): 12%; Observed efficacy ([2]; 63 ppm): 8%
